The values that follow are results of earlier work, collected in patent US20030114497A1 (priority 2001, published 2003).

Data set [1] relates to smooth muscle cell migration. The following applies: see WO 95/25722.
Data set [2] concerns calcium channel. The following applies: see WO 95/05822.

For `CCOC(=O)C1=C(COCCN)NC(C)=C(C(=O)OC)[C@H]1c1ccccc1Cl` (single isomer, unassigned) [R(+) isomer], the “inhibition of smooth muscle cell migration” value in data set [1] was “potent inhibitor”. The “calcium channel blocking activity” value in data set [2] is recorded as “little or no calcium channel blocking activity”.
